The text below walks through data of US20220054432A1, “COMPOSITION FOR INCREASING RETENTION OF CAROTENOID IN BLOOD” (ENEOS Corporation, priority 2018, published 2022).

The data set is described as follows: Transfer into each organ: carotenoid concentration in organs of cynomolgus monkeys (Test Example 3). The format is in vivo. As to conditions: cynomolgus monkey. On the procedure:
As experimental animals, cynomolgus monkeys were used. Two cynomolgus monkeys were used, and an adonixanthin dosing solution was administered to one monkey (adonixanthin-administering monkey), while an astaxanthin dosing solution was administered to the other monkey (astaxanthin-administering monkey). As the dosing solutions, the dosing solutions obtained in Preparation Example 2 were used, and the dosing solutions at a dose such that the dose of adonixanthin or astaxanthin was 50 mg/kg body weight were administered once daily for 10 days (the day of initiation of administration of the dosing solutions was defined as day 1). As the administration method, a disposable catheter was inserted from the nasal cavity into the stomach, and the dosing solutions were injected into the stomach using a syringe. When the dosing solutions were collected into a syringe, the dosing solutions were collected while being stirred with a stirrer. The dose in each administration was calculated based on the latest body weight at each administration time point (the body weight was measured on the day of initiation of acclimation, the day of end of acclimation, the day of initiation of administration, and before administration on day 8 of administration using an electric balance (HP-40K or GP-40K, both of which are manufactured by A&D Company, Limited)). The administration time was 8:30 to 13:30.
During the administration period of the dosing solution, each cynomolgus monkey was fed about 108 g (about 12 g×9 pieces) of a pellet once daily at 14:00 to 16:00, and the feed remained by the feeding on the next day (for the day of administration, before administration) was recovered. Each cynomolgus monkey was fed tap water at libitum, and maintained on a 12-h light/dark cycle, at […], with a relative humidity of 50±20%.
After blood collection after the last administration of the dosing solutions, an aqueous solution of pentobarbital sodium (manufactured by Tokyo Chemical Industry Co., Ltd.) (64.8 mg/mL) was administered into the cephalic vein at a volume of 0.4 mL/kg body weight to perform anesthesia. After the body weight was measured, each cynomolgus monkey was euthanized by exsanguination, and the brain (cerebral cortex, cerebral medulla, cerebellum, midbrain, striatum putamen, striatum caudate nucleus, hippocampus, medulla oblongata, diencephalon), the heart, the spleen, the liver, the kidneys (right and left), and the retina were collected. Each organ thus collected was stored in a deep freezer (−70° C. or lower).
Each of the concentration of adonixanthin in each organ collected from the adonixanthin-administering monkey (concentration relative to the weight of each organ) and the concentration of astaxanthin in each organ collected from the astaxanthin-administering monkey (concentration relative to the weight of each organ) was measured. Specifically, each organ was homogenized, and extraction was repeated with acetone until no color occurred. Then, filtration through a filter was performed to evaporate acetone, and diethyl ether:hexane (2:8, v/v) was added to the solution to extract a carotenoid. Furthermore, evaporation to dryness was performed, and the residue was dissolved in acetone:hexane (2:8, v/v) and subjected to HPLC. As the HPLC device, a Hitachi L-6000 intelligent pump and an L-4250 UV-VIS detector were used. The measurement wavelength was 450 nm, and a column of 5 μm Cosmosil 5SL-II (inner diameter of 250×4.6 mm) (manufactured by Nacalai Tesque, Inc.) was used. As the mobile phase, acetone:hexane (2:8, v/v) was used, and measurement was performed at a flow rate of 1.0 mL/min.
Each of the concentration of adonixanthin in each organ collected from the adonixanthin-administering monkey and the concentration of astaxanthin in each organ collected from the astaxanthin-administering monkey is shown in Table 2.

Where two headings read alike, the source gives them in different places.

Take `CC1=C(/C=C/C(C)=C/C=C/C(C)=C/C=C/C=C(C)/C=C/C=C(C)/C=C/C2=C(C)C(=O)C(O)CC2(C)C)C(C)(C)CC(O)C1` (stereo not drawn) [adonixanthin, 3,3′-dihydroxy-β,β-caroten-4-one]: the “Transfer into and retention in each organ (summary of Table 2)” value (50 mg/kg intragastric once daily for 10 days) was “especially likely to be transferred into each organ and retained therein”. Besides, the concentration at 10 days by setting is: (brain, cerebellum, oral, 50 mg/kg, 50 mg/kg intragastric once daily for 10 days, after last administration, read-out: Concentration in organ: Brain, Cerebellum) 57.5 ng/g; (brain, cerebral cortex, oral, 50 mg/kg, 50 mg/kg intragastric once daily for 10 days, after last administration, read-out: Concentration in organ: Brain, Cerebral cortex) 48.9 ng/g; (brain, cerebral medulla, oral, 50 mg/kg, 50 mg/kg intragastric once daily for 10 days, after last administration, read-out: Concentration in organ: Brain, Cerebral medulla) 53.2 ng/g; (brain, diencephalon, oral, 50 mg/kg, 50 mg/kg intragastric once daily for 10 days, after last administration, read-out: Concentration in organ: Brain, Diencephalon) 77.1 ng/g; (brain, hippocampus, oral, 50 mg/kg, 50 mg/kg intragastric once daily for 10 days, after last administration, read-out: Concentration in organ: Brain, Hippocampus) 64 ng/g; (brain, medulla oblongata, oral, 50 mg/kg, 50 mg/kg intragastric once daily for 10 days, after last administration, read-out: Concentration in organ: Brain, Medulla oblongata) 27.6 ng/g. For the same compound, the concentration at 10 days is, setting by setting: (brain, midbrain, oral, 50 mg/kg, 50 mg/kg intragastric once daily for 10 days, after last administration, read-out: Concentration in organ: Brain, Midbrain) 7.4 ng/g; (brain, striatum caudate nucleus, oral, 50 mg/kg, 50 mg/kg intragastric once daily for 10 days, after last administration, read-out: Concentration in organ: Brain, Striatum Caudate nucleus) 59.8 ng/g; (brain, striatum putamen, oral, 50 mg/kg, 50 mg/kg intragastric once daily for 10 days, after last administration, read-out: Concentration in organ: Brain, Striatum Putamen) 42.1 ng/g; (heart, oral, 50 mg/kg, 50 mg/kg intragastric once daily for 10 days, after last administration, read-out: Concentration in organ: Heart) 305 ng/g; (kidney (left), oral, 50 mg/kg, 50 mg/kg intragastric once daily for 10 days, after last administration, read-out: Concentration in organ: Kidney (left)) 1600 ng/g; (kidney (right), oral, 50 mg/kg, 50 mg/kg intragastric once daily for 10 days, after last administration, read-out: Concentration in organ: Kidney (right)) 1530 ng/g. The concentration at 10 days reads like this: (liver, oral, 50 mg/kg, 50 mg/kg intragastric once daily for 10 days, after last administration, read-out: Concentration in organ: Liver) 1120 ng/g; (retina, oral, 50 mg/kg, 50 mg/kg intragastric once daily for 10 days, after last administration, read-out: Concentration in organ: Retina) 689 ng/g; (spleen, oral, 50 mg/kg, 50 mg/kg intragastric once daily for 10 days, after last administration, read-out: Concentration in organ: Spleen) 5280 ng/g.

On to `CC1=C(/C=C/C(C)=C/C=C/C(C)=C/C=C/C=C(C)/C=C/C=C(C)/C=C/C2=C(C)C(=O)C(O)CC2(C)C)C(C)(C)CC(O)C1=O` (stereo not drawn) [astaxanthin, 3,3′-dihydroxy-β,β-carotene-4,4′-dione], for which the “Transfer into and retention in each organ (summary of Table 2)” value (in vivo, 50 mg/kg) is on record as “exist in each organ at a high concentration”. In addition, the concentration at 10 days reads like this: (in vivo, 50 mg/kg, Concentration in organ: Brain, Cerebellum) 14.4 ng/g; (in vivo, 50 mg/kg, Concentration in organ: Brain, Cerebral cortex) 4.8 ng/g; (in vivo, 50 mg/kg, Concentration in organ: Brain, Cerebral medulla) 8.3 ng/g; (in vivo, 50 mg/kg, Concentration in organ: Brain, Diencephalon) 5.2 ng/g; (in vivo, 50 mg/kg, Concentration in organ: Brain, Hippocampus) 7.1 ng/g; (in vivo, 50 mg/kg, Concentration in organ: Brain, Medulla oblongata) 8.3 ng/g. In addition, the concentration at 10 days (in vivo, 50 mg/kg, Concentration in organ: Brain, Midbrain) was 2.9 ng/g; the concentration at 10 days (in vivo, 50 mg/kg, Concentration in organ: Brain, Striatum Caudate nucleus) was 10.2 ng/g; the concentration at 10 days (in vivo, 50 mg/kg, Concentration in organ: Brain, Striatum Putamen) was 5 ng/g; the concentration at 10 days (in vivo, 50 mg/kg, Concentration in organ: Heart) was 15.7 ng/g; the concentration at 10 days (in vivo, 50 mg/kg, Concentration in organ: Kidney (left)) was determined as 228 ng/g; the concentration at 10 days (in vivo, 50 mg/kg, Concentration in organ: Kidney (right)) is 231 ng/g. Moreover, the concentration at 10 days by setting is: (in vivo, 50 mg/kg, Concentration in organ: Liver) 37.8 ng/g; (in vivo, 50 mg/kg, Concentration in organ: Retina) 24.4 ng/g; (in vivo, 50 mg/kg, Concentration in organ: Spleen) 88.8 ng/g.
